Results as given in patent publication US20220088044A1, “SUBSTANCES FOR TREATMENT OF CORONAVIRUS INFECTION” (ScandiBio Therapeutics AB, priority 2020, published 2022).
Read-outs that look alike come from different tables or passages of the source.

What was measured:
[1] = tested on: patients with chronic hepatitis C; settings: 2 grams 2 times a day, compared to placebo; cited from earlier work
[2] = cited from earlier work
[3] = cited from earlier work; remark: listed apart in the source
[4] = cited from earlier work; remark: listed apart in the source
[5] = tested on: lamb model with increased pulmonary blood flow; settings: chronic treatment; cited from earlier work
[6] = tested on: acute myocardial infarction; settings: five controlled trials, n=3108; cited from earlier work
[7] = tested on: obese subjects with hepatic steatosis; assay: Short-term dietary supplementation with serine in obese subjects with hepatic steatosis; format: in vivo, human
Method: To test the model-based predictions, we assessed the effect of short-term dietary supplementation with serine on fatty liver and fasting levels of plasma markers of liver functions in six obese subjects (BMI 32.5±2.70 kg/m2) with hepatic steatosis. Each patient received one oral dose of ˜20 g of L-serine (200 mg/kg) per day for 14 days. The supplementation was well-tolerated by all subjects. […] We examined the concept by testing if supplementation of GSH and NAD+ precursors for two weeks would decrease high fat diet induced liver fat accumulation in mice. Therefore, we gave serine 300 mg/kg/day and nicotinamide riboside (NR) 400 mg/kg/day la gavage as well as 1 g/l of NAC (N-acetyl-L-cysteine) in the drinking water for 14 days to high fat diet-fed mice.

[8] = tested on: Pasteurella multocida infection; settings: mouse, in vivo; cited from earlier work
aging mice = settings: mouse, in vivo; cited from earlier work
traumatic brain injury = settings: mouse, in vivo; cited from earlier work
[9] = tested on: adults with hereditary sensory and autonomic neuropathy type 1 (HSAN1); settings: 400 mg/kg/day, long-term (one to two years); cited from earlier work
[10] = cited from earlier work; remark: listed apart in the source
COPD exacerbations = settings: in vivo; cited from earlier work
[11] = tested on: epithelial cells exposed to the H5N1 influenza A virus; settings: cited from earlier work
[12] = tested on: patients with community-acquired pneumonia; settings: compared to conventional therapy; cited from earlier work
[13] = tested on: acute respiratory distress syndrome (ARDS); settings: human, in vivo; cited from earlier work
HIV patients = settings: cited from earlier work
[14] = cited from earlier work; remark: listed apart in the source
[15] = cited from earlier work; remark: listed apart in the source
blood NAD+ [16] = settings: cited from earlier work
[17] = cited from earlier work; remark: listed apart in the source
blood NAD+ [18] = settings: cited from earlier work; remark: listed apart in the source
mice = settings: cited from earlier work
premature new-borns = settings: 20 mg/kg/day; cited from earlier work
[19] = tested on: LPS-induced acute lung injury; settings: in vivo; cited from earlier work
[20] = after ingestion of supplemental nicotinamide; cited from earlier work

SMILES: CC(=O)O[C@H](CC(=O)[O-])C[N+](C)(C)C [Acetyl-L-Carnitine]
- daily activity and fatigue [1]: increase daily activity in patients, reduce fatigue

SMILES: C[N+](C)(C)C[C@H](O)CC(=O)[O-] [L-carnitine]
- solubility in acetone [2]: insoluble
- solubility in water, hot alcohol [2]: readily soluble
- absolute bioavailability ([3]; in vivo): 15-16%
- faecal excretion of total carnitine ([3]; in vivo): less than 1 % of the administered dose
- mean apparent terminal elimination half-life ([3]; in vivo): 17.4 h
- mean distribution half-life ([3]; in vivo): ~0.6 h
- removal from plasma by dialysis ([3]; in vivo): easily removed from plasma by dialysis
- total body clearance (Dose/AUC including endogenous baseline concentrations), mean ([3]; in vivo): 4.00 L/h
- binding to plasma protein or albumin ([3]; tested at any concentration): not bound
- tolerability ([4]; in vivo): usually well tolerated
- toxicity from over dosage ([4]; in vivo): no reports of toxicity
- lung carnitine homeostasis, oxidative stress, mitochondrial and endothelial function [5]: alleviates changes in lung carnitine homeostasis, reduces associated oxidative stress, and improves pulmonary mitochondrial function, NO signalling and eventually endothelial function
- heart failure, unstable angina, or myocardial reinfarction: daily 2 g versus 6 g [6]: no significant differences

SMILES: N[C@@H](CO)C(=O)O [L-serine]
- ALT, AST, and ALP levels ([7]; after 14 days supplementation): significantly decreased
- liver fat ([7]; after ~20 g L-serine (200 mg/kg) oral per day for 14 days, decreased significantly from 26.8±6.0%): 20.4±7.0%
- tolerability ([7]; ~20 g L-serine per day for 14 days): well-tolerated
- macrophage- and neutrophil-mediated inflammatory responses [8]: decrease the macrophage- and neutrophil-mediated inflammatory responses
- body weight, oxidative stress and inflammation (aging mice): reduce body weight by decreasing orexigenic peptide expression and reduces oxidative stress and inflammation
- neuroprotection (traumatic brain injury): lead to neuroprotection
- adverse effects (vital signs, physical examination, clinical laboratory) [9]: did not reveal adverse effects
- safety in humans ([10]; doses up to 400 mg/kg/day (around 25-30 g/day)): shown to be safe
- safety in pregnancy ([10]; three daily doses of 5 g (190 mg/kg), pre- and postnatal treatment of 3-phosphoglycerate-dehydrogenase deficiency): safe even in pregnancy

SMILES: CC(=O)N[C@@H](CS)C(=O)O [NAC, N-acetylcysteine]
- number and effect of COPD exacerbations (COPD exacerbations): reduce the number and effect of COPD exacerbations
- inflammatory response [11]: reduce
- inflammatory response and oxidative stress [12]: improves inflammatory response and oxidative stress
- duration of stay in intensive care [13]: has been shortened
- short-term mortality or 30-day mortality [13]: did not contribute to reducing short-term mortality or 30-day mortality
- glutathione levels in red blood cells (HIV patients; 900 mg or 1800 mg twice daily): increased significantly
- red blood cell oxidized glutathione levels (HIV patients; 900 mg or 1800 mg twice daily): decreased significantly
- glutathione: glutathione disulfide (GSH:GSSG) ratios (HIV patients; both doses compared to placebo): generally non-significant increased
- half-life ([14]; adults): 5.6 to 6 h
- time to peak plasma concentration ([14]; after application): 30 to 60 min
- absorption ([14]; after oral administration): rapidly absorbed
- share of amount passed to the blood determined in the lungs ([14]; after oral administration): 48%
- distribution volume (Vd) ([14]; in vivo): 0.33 to 0.47 L/kg
- excreted in urine in the form of sulfate and taurine ([14]; in vivo): 22-30%
- rate of binding to plasma proteins ([14]; in vivo): about 50%
- effect of food intake ([14]; oral): not affected
- safety profile ([15]; HIV-infected patients, oral 6,000-8,000 mg daily for several months): good safety profile
- safety in humans ([15]; daily dosage of 4-6 grams): shown to be safe
- serious adverse events or signs of intoxication ([15]; even at very high doses): serious adverse events or signs of intoxication are not observed
- incidence of most common adverse reactions (rash, urticaria/facial flushing, pruritus, nausea and vomiting) ([15]; in vivo): greater than 2%
- anaphylactic reactions, share of people ([15]; within 30 min after IV loading dose): 3-6%

SMILES: NC(=O)c1ccc[n+]([C@@H]2O[C@H](CO)[C@@H](O)[C@H]2O)c1 [NR, Nicotinamide riboside]
- blood NAD+ metabolome (blood NAD+ [16]; single doses of 100, 300 and 1,000 mg): dose-dependent increases
- rise of human blood NAD+ (blood NAD+ [16]; single oral dose, pilot study): ≤ 2.7 fold
- lowest observed adverse effect level ([17]; 90-day study): 1000 mg/kg/day
- no observed adverse effect level ([17]; 90-day study): 300 mg/kg/day
- mortality ([17]; oral dose of 5000 mg/kg): no mortality
- tolerability (blood NAD+ [18]; oral, 250 mg up-titrated to 1000 mg twice daily, 9 days): well tolerated with no adverse events
- increase of blood NAD+, baseline to steady state (blood NAD+ [18]; p=0.001): 100%
- whole-blood NR, baseline to mean concentration at steady state (blood NAD+ [18]; p=0.03): Significant increases

SMILES: CC(=O)N[C@@H](CSN=O)C(=O)O [SNOAC, S-nitroso-N-acetylcysteine]
- expression of several important genes (mice; in vitro and in vivo): induced a hypoxia-like response
- blood pressure in lungs and right ventricle (pulmonary artery hypertension) (mice; metabolite formed in mice treated with acetylcysteine): increased blood pressure in the lungs and right ventricle of the heart

SMILES: C[N+](C)(C)CC(O)CC(=O)[O-] (stereo not shown) [carnitine]
- side effects ([4]; doses of approximately 3 g/day): nausea, vomiting, abdominal cramps, diarrhoea, and a “fishy” body odor
- total carnitine concentrations in plasma and red blood cells (premature new-borns): increases total carnitine concentrations in plasma and red blood cells

SMILES: O=C(O)c1cccnc1 [niacin]
- LPS-induced acute lung injury [19]: alleviate LPS-induced acute lung injury

SMILES: NC(=O)c1cccnc1 [nicotinamide]
- flushing or glucose intolerance [20]: no cases of flushing or glucose intolerance have been reported
